# Reference: US12570655B2, “Cysteine covalent modifiers of AKT1 and uses thereof” (Terremoto Biosciences, Inc., priority 2023, dated 2026)
# Where two headings read alike, the source gives them in different places.
# How the values were obtained:
# Format in all cases: cell-based
# AKT2 = molecular target: T1, AKT2 (Homo sapiens, UniProt P31751); assay: Live cell AKT2 target engagement by NanoBRET competitive probe displacement; conditions: HEK293 cells transfected with kinase-NanoLuciferase fusion, 2 h at 37° C.
# T1 construct: expressed in transfected cells; host or cells: HEK293
# T1 sequence (P31751 whole entry, the tested form may be a part): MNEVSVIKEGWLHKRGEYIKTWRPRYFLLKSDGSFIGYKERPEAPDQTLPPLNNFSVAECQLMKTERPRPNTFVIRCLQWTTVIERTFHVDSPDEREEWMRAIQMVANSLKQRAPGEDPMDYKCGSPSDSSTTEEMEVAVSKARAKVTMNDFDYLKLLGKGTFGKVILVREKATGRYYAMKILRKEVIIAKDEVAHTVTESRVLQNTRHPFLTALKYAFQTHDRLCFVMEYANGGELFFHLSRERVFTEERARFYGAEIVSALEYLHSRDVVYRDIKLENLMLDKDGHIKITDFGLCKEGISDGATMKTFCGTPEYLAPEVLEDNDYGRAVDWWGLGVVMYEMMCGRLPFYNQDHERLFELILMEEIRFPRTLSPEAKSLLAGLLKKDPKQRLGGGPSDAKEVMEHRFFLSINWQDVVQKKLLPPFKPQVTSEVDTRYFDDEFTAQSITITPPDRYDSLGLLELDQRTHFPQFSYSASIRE
# Summary of the method: (§1)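 Luminescence ratio 600/460 nm served as readout after HEK293 cells bearing transiently expressed kinase–NanoLuciferase fusions were exposed 2 h at 37 °C to test compound alongside an ATP-competitive fluorescent tracer near EC50. Extracellular signal was quenched by a luciferase inhibitor.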
# AKT1 WT = molecular target: T2, AKT1 WT (Homo sapiens, UniProt P31749); assay: Live cell AKT1 WT target engagement by NanoBRET competitive probe displacement; conditions: HEK293 cells transfected with kinase-NanoLuciferase fusion, 2 h at 37° C.
# T2 construct: expressed in transfected cells; host or cells: HEK293
# T2 sequence (P31749 whole entry, the tested form may be a part): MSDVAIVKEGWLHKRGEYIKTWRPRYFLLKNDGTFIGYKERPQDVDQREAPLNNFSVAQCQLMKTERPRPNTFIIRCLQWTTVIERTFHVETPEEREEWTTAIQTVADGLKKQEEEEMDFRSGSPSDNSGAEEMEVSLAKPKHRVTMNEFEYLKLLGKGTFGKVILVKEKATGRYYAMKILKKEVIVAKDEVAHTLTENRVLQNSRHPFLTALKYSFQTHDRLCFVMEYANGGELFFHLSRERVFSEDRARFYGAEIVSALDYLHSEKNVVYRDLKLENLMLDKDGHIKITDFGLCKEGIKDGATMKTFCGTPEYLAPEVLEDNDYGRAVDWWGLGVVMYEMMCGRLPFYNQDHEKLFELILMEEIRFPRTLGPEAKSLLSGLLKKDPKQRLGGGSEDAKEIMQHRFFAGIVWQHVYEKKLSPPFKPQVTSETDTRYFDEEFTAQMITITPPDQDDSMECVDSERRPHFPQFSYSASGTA
# Summary of the method: as §1
# AKT1 E17K = molecular target: T3, AKT1 E17K (Homo sapiens, UniProt P31749, E17K); assay: Live cell AKT1 E17K target engagement by NanoBRET competitive probe displacement; conditions: HEK293 cells transfected with kinase-NanoLuciferase fusion, 2 h at 37° C.
# T3 construct: expressed in transfected cells; host or cells: HEK293
# T3 sequence (P31749 whole entry E17K, the tested form may be a part): as the sequence (P31749 whole entry, the tested form may be a part) above, with E17K counted along it
# Summary of the method: as §1
# [1] = system: LAPC4 prostate cancer cells; assay: Antiproliferative effects in LAPC4 cells (CellTiter Glo); conditions: LAPC4 cells (AKT1 E17K allele), read-out: LAPC4 proliferation IC50
# Summary of the method: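 IC50 values reflect 72 h compound treatment of cells plated at 1,000 per well, with CellTiter Glo luminescence as the viability read-out.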
Compound,IC50 (AKT2) [µM],IC50 (AKT1 WT) [µM],IC50 (AKT1 E17K) [µM],IC50 ([1]; 72 h) [µM],"IC50 ([1]; Homo sapiens, LAPC4, 72 h) [µM]"
"C=CC(=O)N1CCC(N[C@H]2CCc3cc(-n4c(-c5cccnc5N)nc5ccc(-n6cccn6)nc54)ccc32)C(F)(F)C1 (single isomer, unassigned) [Example 55, 1-((*)-4-(((S)-5-(2-(2-aminopyridin-3-yl)-5-(1H-pyrazol-1-yl)-3H-imidazo[4,5-b]pyridin-3-yl)-2,3-dihydro-1H-inden-1-yl)amino)-3,3-difluoropiperidin-1-yl)prop-2-en-1-one]",1.12,0.0937,0.215,0.617,
"C=CC(=O)NC1CCC(N[C@H]2CCc3cc(-n4c(-c5cccnc5N)nc5ccc(-n6cccn6)nc54)ccc32)CC1 (single isomer, unassigned) [Example 47, N-((1*,4*)-4-(((S)-5-(2-(2-aminopyridin-3-yl)-5-(1H-pyrazol-1-yl)-3H-imidazo[4,5-b]pyridin-3-yl)-2,3-dihydro-1H-inden-1-yl)amino)cyclohexyl)acrylamide]",2.57,0.2,0.548,4.27,
"CC(C)(C)/C=C/C(=O)N1CCC(N[C@H]2CCc3cc(-n4c(-c5cccnc5N)nc5ccc(-n6cccn6)nc54)ccc32)CC1 [Example 95, (S,E)-1-(4-((5-(2-(2-aminopyridin-3-yl)-5-(1H-pyrazol-1-yl)-3H-imidazo[4,5-b]pyridin-3-yl)-2,3-dihydro-1H-inden-1-yl)amino)piperidin-1-yl)-4,4-dimethylpent-2-en-1-one]",1.19,0.11,0.312,,0.677
"C=CC(=O)N1CCC(N[C@H]2CCc3cc(-n4c(-c5cccnc5N)nc5ccc(-n6ccc(C(C)C)n6)nc54)ccc32)CC1 [Example 281, 1-(4-{[(1S)-5-[2-(2-aminopyridin-3-yl)-5-(3-isopropylpyrazol-1-yl)imidazo[4,5-b]pyridin-3-yl]-2,3-dihydro-1H-inden-1-yl]amino}piperidin-1-yl)prop-2-en-1-one]",0.0808,0.254,0.0154,,0.253
"C=CC(=O)N1CC2CC[C@H]1CC2N[C@H]1CCc2cc(-n3c(-c4cccnc4N)nc4ccc(-n5cccn5)nc43)ccc21 (single isomer, unassigned) [Example 134, 1-[(1S,4S,5*)-5-{[(1S)-5-[2-(2-aminopyridin-3-yl)-5-(pyrazol-1-yl)imidazo[4,5-b]pyridin-3-yl]-2,3-dihydro-1H-inden-1-yl]amino}-2-azabicyclo[2.2.2]octan-2-yl]prop-2-en-1-one]",2.71,0.0724,0.232,1.15,
"C=CC(=O)N1CC(N[C@H]2CCc3cc(-n4c(-c5cccnc5N)nc5ccc(-n6cccn6)nc54)ccc32)C1 [Example 28, (S)-1-(3-((5-(2-(2-aminopyridin-3-yl)-5-(1H-pyrazol-1-yl)-3H-imidazo[4,5-b]pyridin-3-yl)-2,3-dihydro-1H-inden-1-yl)amino)azetidin-1-yl)prop-2-en-1-one]",0.25,0.0501,0.0816,,0.216
"C=C1CCN(c2ccccc2C(=O)N[C@H]2CCc3cc(-n4c(-c5cccnc5N)nc5ccc(-n6cccn6)nc54)ccc32)C1=O [Example 42, (S)-N-(5-(2-(2-aminopyridin-3-yl)-5-(1H-pyrazol-1-yl)-3H-imidazo[4,5-b]pyridin-3-yl)-2,3-dihydro-1H-inden-1-yl)-2-(3-methylene-2-oxopyrrolidin-1-yl)benzamide]",0.252,0.289,0.897,,3.65
"C=CC(=O)N1CCC(N[C@H]2CCc3cc(-n4c(-c5cccnc5N)nc5ccc(-c6nnc(C)o6)nc54)ccc32)CC1 [Example 256, (S)-1-(4-((5-(2-(2-aminopyridin-3-yl)-5-(5-methyl-1,3,4-oxadiazol-2-yl)-3H-imidazo[4,5-b]pyridin-3-yl)-2,3-dihydro-1H-inden-1-yl)amino)piperidin-1-yl)prop-2-en-1-one]",0.394,1.69,0.186,,0.809
"C=C(F)C(=O)N1CC2(CC(N[C@H]3CCc4cc(-n5c(-c6cccnc6N)nc6ccc(-n7cccn7)nc65)ccc43)C2)C1 [Example 83, (S)-1-(6-((5-(2-(2-aminopyridin-3-yl)-5-(1H-pyrazol-1-yl)-3H-imidazo[4,5-b]pyridin-3-yl)-2,3-dihydro-1H-inden-1-yl)amino)-2-azaspiro[3.3]heptan-2-yl)-2-fluoroprop-2-en-1-one]",0.583,0.0562,0.192,,0.506
"C=CC(=O)N1CCC(N[C@H]2CCc3cc(-n4c(-c5cccnc5N)nc5ccc(-n6cccn6)nc54)ccc32)C(F)C1 (single isomer, unassigned) [Example 106, 1-((3*,4*)-4-(((S)-5-(2-(2-aminopyridin-3-yl)-5-(1H-pyrazol-1-yl)-3H-imidazo[4,5-b]pyridin-3-yl)-2,3-dihydro-1H-inden-1-yl)amino)-3-fluoropiperidin-1-yl)prop-2-en-1-one]",0.12,0.00385,0.0203,0.093,
"C=CC(=O)N1CCC(N[C@H]2CCc3cc(-n4c(-c5cccnc5F)nc5ccc(-n6cccn6)nc54)ccc32)CC1 [Example 251, 1-(4-{[(1S)-5-[2-(2-fluoropyridin-3-yl)-5-(pyrazol-1-yl)imidazo[4,5-b]pyridin-3-yl]-2,3-dihydro-1H-inden-1-yl]amino}piperidin-1-yl)prop-2-en-1-one]",0.28,2.16,0.113,,2.23
"C=CC(=O)N1CCC(N[C@H]2CCc3cc(-n4c(-c5cccnc5N)nc5cc(C(F)(F)F)cnc54)ccc32)CC1 [Example 216, 1-(4-{[(1S)-5-[2-(2-aminopyridin-3-yl)-6-(trifluoromethyl)imidazo[4,5-b]pyridin-3-yl]-2,3-dihydro-1H-inden-1-yl]amino}piperidin-1-yl)prop-2-en-1-one]",0.352,2.35,0.14,,3.96
"C=CC(=O)N1CCc2cccc(C(=O)N[C@H]3CCc4cc(-n5c(-c6cccnc6N)nc6ccc(-n7cccn7)nc65)ccc43)c21 [Example 10, N-[(1S)-5-[2-(2-aminopyridin-3-yl)-5-(pyrazol-1-yl)imidazo[4,5-b]pyridin-3-yl]-2,3-dihydro-1H-inden-1-yl]1-(prop-2-enoyl)-2,3-dihydroindole-7-carboxamide]",1.47,0.121,> 1,,1.86
"C=CC(=O)N1C[C@H]2CCC[C@@H](C1)C2N[C@H]1CCc2cc(-n3c(-c4cccnc4N)nc4ccc(-n5cccn5)nc43)ccc21 (single isomer, unassigned) [Example 189, 1-((1R,5S,9*)-9-(((S)-5-(2-(2-aminopyridin-3-yl)-5-(1H-pyrazol-1-yl)-3H-imidazo[4,5-b]pyridin-3-yl)-2,3-dihydro-1H-inden-1-yl)amino)-3-azabicyclo[3.3.1]nonan-3-yl)prop-2-en-1-one]",0.74,1.47,0.0609,1.37,
"C=CC(=O)N1CCC(N[C@H]2CCc3cc(-n4c(-c5cccc(F)c5)nc5ccc(-n6cccn6)nc54)ccc32)CC1 [Example 240, 1-(4-{[(1S)-5-[2-(3-fluorophenyl)-5-(pyrazol-1-yl)imidazo[4,5-b]pyridin-3-yl]-2,3-dihydro-1H-inden-1-yl]amino}piperidin-1-yl)prop-2-en-1-one]",0.309,2.54,0.0426,,1.04
"C=CC(=O)Nc1ccccc1CN[C@H]1CCc2cc(-n3c(-c4cccnc4N)nc4ccc(-n5cccn5)nc43)ccc21 [Example 39, N-[2-({[(1S)-5-[2-(2-aminopyridin-3-yl)-5-(pyrazol-1-yl)imidazo[4,5-b]pyridin-3-yl]-2,3-dihydro-1H-inden-1-yl]amino}methyl)phenyl]prop-2-enamide]",0.0948,0.0642,0.0949,,1.6
"C=CC(=O)N1CCC(N[C@H]2CC(F)c3cc(-n4c(-c5cccnc5N)nc5ccc(-n6cccn6)nc54)ccc32)CC1 (single isomer, unassigned) [Example 233, 1-(4-(((1S,3*)-5-(2-(2-aminopyridin-3-yl)-5-(1H-pyrazol-1-yl)-3H-imidazo[4,5-b]pyridin-3-yl)-3-fluoro-2,3-dihydro-1H-inden-1-yl)amino)piperidin-1-yl)prop-2-en-1-one]",0.028,0.0597,0.0146,0.07,
"C=C(F)C(=O)Nc1cccc(C(=O)N[C@H]2CCc3cc(-n4c(-c5cccnc5N)nc5ccc(-n6cccn6)nc54)ccc32)c1 [Example 8, (S)-N-(5-(2-(2-aminopyridin-3-yl)-5-(1H-pyrazol-1-yl)-3H-imidazo[4,5-b]pyridin-3-yl)-2,3-dihydro-1H-inden-1-yl)-3-(2-fluoroacrylamido)benzamide]",0.0715,0.00707,0.112,,1.12
"C#CC1CC(N[C@H]2CCc3cc(-n4c(-c5cccnc5N)nc5ccc(-n6cccn6)nc54)ccc32)CCN1C(=O)C=C (single isomer, unassigned) [Example 114, 1-((2*,4*)-4-(((S)-5-(2-(2-aminopyridin-3-yl)-5-(1H-pyrazol-1-yl)-3H-imidazo[4,5-b]pyridin-3-yl)-2,3-dihydro-1H-inden-1-yl)amino)-2-ethynylpiperidin-1-yl)prop-2-en-1-one]",0.0219,0.00856,0.00834,0.0125,
